# Biological target: T1, SOS1 binding to KRAS G12C (Homo sapiens, UniProt Q07889)
# T1 construct: consisting of amino acid residues 564 to 1049 which are the catalytic domain; purchased Reaction Biology Corporation MSC-11-502 (SOS1-Strep); MSC-11-538 (KRAS G12C)
# T1 sequence (Q07889 564-1049): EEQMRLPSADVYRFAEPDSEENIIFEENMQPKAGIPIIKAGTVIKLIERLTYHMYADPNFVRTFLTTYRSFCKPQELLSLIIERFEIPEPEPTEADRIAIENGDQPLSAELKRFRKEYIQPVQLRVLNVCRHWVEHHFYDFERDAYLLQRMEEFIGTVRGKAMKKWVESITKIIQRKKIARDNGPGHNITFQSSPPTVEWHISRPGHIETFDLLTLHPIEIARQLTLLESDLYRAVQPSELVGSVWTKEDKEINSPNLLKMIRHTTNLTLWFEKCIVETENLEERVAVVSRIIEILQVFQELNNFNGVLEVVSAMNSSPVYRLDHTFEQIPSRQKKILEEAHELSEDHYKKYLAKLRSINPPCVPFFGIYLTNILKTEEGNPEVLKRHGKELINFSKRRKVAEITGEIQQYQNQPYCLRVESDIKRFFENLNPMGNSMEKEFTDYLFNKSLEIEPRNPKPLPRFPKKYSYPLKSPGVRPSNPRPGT
# Experiment: SOS1 GTP substitution inhibition test (HTRF/TR-FRET, KRAS G12C-SOS1 binding inhibitory ability)
# Type: biochemical
# Conditions: HTRF, GST-KRAS G12C (2-169), SOS1-Strep (564-1049), 1.6, 8, 40, 200, 1,000 nM
# Experimental: In order to determine whether the substitution function of SOS1 binding to KRAS G12C is inhibited by the above-described example compounds, a homogeneous time-resolved fluorescence (HTRF) test was performed using G12C(#MSC-11-538) and SOS1-Strep(#MSC-11-502) purchased from Reaction Biology Corporation (MA, USA). The activity of SOS1 enzyme was determined by measuring the amount of GTP bound to KRAS G12C proteins, using the principle of time-resolved fluorescence energy transfer (TR-FRET). Based on the principle that terbium bound to the GST-binding antibody of the GST-KRAS G12C protein acts as a donor of fluorescence resonance energy transfer (FRET), and the GTP bound to the KRAS G12C protein is labeled with the fluorescent agent DY-647P1 and acts as a receiver, when the more GTP is bound to the KRAS G12C protein by the substitution reaction of SOS1 according to this test, the higher HTRF or FRET signal is measured. To summarize, glutathione S-transferase (GST)-tagged KRAS G12C proteins (consisting of amino acid residues 2 to 169) required for the reaction, streptavidin-tagged SOS1 proteins (consisting of amino acid residues 564 to 1049 which are the catalytic domain), anti-GST antibody (#61[…]) purchased from CISBIO corporation, nucleic acid (#NU-820-647P1) purchased from Jena Bioscience GmbH were mixed in a buffer solution formed from 10 mM HEPES pH7.4, 150 mM NaCl, 5 mM MgCl2, and 1 mM dithiothreitol (DTT), and the mixture was added to a 384-well plate and reacted at room temperature. Next, FRET signals were measured with a Perkin Elmer Envision microplate reader. In this case, an excitation signal (excitation) was measured at 320 nm, and an emission signal (emission) was measured at 615/665 nm. The fluorescence measurement value when the SOS1 protein was not included was calculated as a background signal value, and the background signal value was subtracted from all of the measured HTRF values. The fluorescence measurement value when the synthesized compound was not included was measured as a control value, and this value was selected as a reference point of 100%. For each of the example compounds, fluorescence was measured at concentrations of 1.6, 8, 40, 200, and 1,000 nM (5 points, 5-fold), and the 50% activity inhibition value (IC50) of each of the compounds was calculated using GraphPad Prism. When the IC50 value was 50 nM or less, the inhibitory ability was denoted as +++. When the IC50 value was more than 50 nM and 100 nM or less, the inhibitory ability was denoted as ++. When the IC50 value was more than 100 nM, the inhibitory ability was denoted as +.
row,SMILES,IC50
1,"CNCc1ccccc1-c1csc(C(C)Nc2nc(C)nc3cc(C(=O)N4CCOCC4)c(OC)cc23)c1 (centres unmarked) [Example 2, (6-methoxy-2-methyl-4-((1-(4-(2-((methylamino)methyl)phenyl)thiophen-2-yl)ethyl)amino)quinazoline-7-yl)(morpholino)methanone]",50 to 100 nM
2,"COc1cc2c(N[C@H](C)c3cc(N)cc(C(F)(F)F)c3)nc(C)nc2cc1C(=O)N1C[C@@H](C)N[C@@H](C)C1 [Example 3, (4-(((R)-1-(3-amino-5-(trifluoromethyl)phenyl)ethyl)amino)-6-methoxy-2-methylquinazoline-7-yl)((3R, S)-3,5-dimethylpiperazin-1-yl)methanone]",> 100 nM
3,"COc1cc2c(N[C@H](C)c3cc(N)cc(C(F)(F)F)c3)nc(C)nc2cc1C(=O)N1CCSCC1 [Example 4, (R)-(4-((1-(3-amino-5-(trifluoromethyl)phenyl)ethyl)amino)-6-methoxy-2-methylquinazoline-7-yl)(thiomorpholino)methanone]",50 to 100 nM
4,"COc1cc2c(N[C@H](C)c3cc(N)cc(C(F)(F)F)c3)nc(C)nc2cc1C(=O)N1CC2COCC2C1 (stereo partly drawn) [Example 5, (4-(((R)-1-(3-amino-5-(trifluoromethyl)phenyl)ethyl)amino)-6-methoxy-2-methylquinazoline-7-yl)(tetrahydro-1H-furo[3,4-c]pyrrol-5(3H)-yl)methanone]",> 100 nM
5,"COc1cc2c(N[C@H](C)c3cc(N)cc(C(F)(F)F)c3)nc(C)nc2cc1C(=O)N1CCC1 [Example 7, (R)-(4-((1-(3-amino-5-(trifluoromethyl)phenyl)ethyl)amino)-6-methoxy-2-methylquinazoline-7-yl)(azetidine-1-yl)methanone]",> 100 nM
6,"COc1cc2c(NC(C)c3cc(-c4cccc5c4CNCC5)cs3)nc(C)nc2cc1C(=O)N1CCOCC1 (centres unmarked) [Example 8, (6-methoxy-2-methyl-4-((1-(4-(1,2,3,4-tetrahydroisoquinolin-8-yl)thiophen-2-yl)ethyl)amino)quinazoline-7-yl)(morpholino)methanone]",> 100 nM
7,"COc1cc2c(N[C@H](C)c3cc(N)cc(C(F)(F)F)c3)nc(C)nc2cc1C(=O)N1CCNCC1 [Example 9, (R)-(4-((1-(3-amino-5-(trifluoromethyl)phenyl)ethyl)amino)-6-methoxy-2-methylquinazoline-7-yl)(piperazine-1-yl)methanone]",≤ 50 nM
8,COc1cc2c(N[C@H](C)c3cc(NC(=O)C(F)(F)F)cc(C(F)(F)F)c3)nc(C)nc2cc1C(=O)N1CCOCC1 [Example 10],> 100 nM
9,"COc1cc2c(N[C@H](C)c3cc(N)cc(C(F)(F)F)c3)nc(C)nc2cc1C(=O)N1CC(F)C1 [Example 11, (R)-(4-((1-(3-amino-5-(trifluoromethyl)phenyl)ethyl)amino)-6-methoxy-2-methylquinazoline-7-yl)(3-fluorazetidine-1-yl)methanone]",> 100 nM
10,COc1cc2c(NC(C)c3cc(-c4ccccc4CN(C)C)cs3)nc(C)nc2cc1C(=O)N1CCOCC1 (centres unmarked) [Example 12],50 to 100 nM
11,COc1cc2c(NC(C)c3cc(-c4ccccc4CN)cs3)nc(C)nc2cc1C(=O)N1CCOCC1 (centres unmarked) [Example 13],50 to 100 nM
12,COc1cc2c(NC(C)c3cc(-c4ccccc4CO)cs3)nc(C)nc2cc1C(=O)N1CCOCC1 (centres unmarked) [Example 14],> 100 nM
13,"COc1cc2c(N[C@H](C)c3cc(N)cc(C(F)(F)F)c3)nc(C)nc2cc1C(=O)N1CCS(=O)(=O)CC1 [Example 18, (R)-(4-((1-(3-amino-5-(trifluoromethyl)phenyl)ethyl)amino)-6-methoxy-2-methylquinazolin-7-yl)(1,1-dioxothiomorpholino)methanone]",≤ 50 nM
14,"COc1cc2c(N[C@H](C)c3cc(N)cc(C(F)(F)F)c3)nc(C)nc2cc1C(=O)N1CCSC1 [Example 20, (R)-(4-((1-(3-amino-5-(trifluoromethyl)phenyl)ethyl)amino)-6-methoxy-2-methylquinazolin-7-yl)(thiazolidine-3-yl)methanone]",≤ 50 nM
15,"COc1cc2c(N[C@H](C)c3cc(C)cc(N)c3)nc(C)nc2cc1C(=O)N1CCOCC1 [Example 21, (R)-(4-((1-(3-amino-5-methylphenyl)ethyl)amino)-6-methoxy-2-methylquinazolin-7-yl)(morpholino)methanone]",50 to 100 nM
16,"COc1cc2c(N[C@H](C)c3cc(N)cc(C#N)c3)nc(C)nc2cc1C(=O)N1CCOCC1 [Example 22, (R)-3-amino-5-(1-((6-methoxy-2-methyl-7-(morpholine-4 carbonyl)quinazolin-4-yl)amino)ethyl)benzonitrile]",> 100 nM
17,"COc1cc2c(N[C@H](C)c3cc(N)cc(C4CC4)c3)nc(C)nc2cc1C(=O)N1CCOCC1 [Example 24, (R)-(4-((1-(3-amino-5-cyclopropylphenyl)ethyl)amino)-6-methoxy-2-methylquinazolin-7-yl)(morpholino)methanone]",50 to 100 nM

# Next, values leading:
row,IC50,SMILES
1,≤ 50 nM,"COc1cc2c(N[C@H](C)c3cc(N)cc(C(F)(F)F)c3)nc(C)nc2cc1C(=O)N1CCOCC1 [Example 1, (R)-(4-((1-(3-amino-5-(trifluoromethyl)phenyl)ethyl)amino)-6-methoxy-2-methylquinazoline-7-yl)(morpholino)methanone]"
2,50 to 100 nM,"COc1cc2c(N[C@H](C)c3cccc(C(F)F)c3F)nc(C)nc2cc1C(=O)N1CCOCC1 [Example 6, (R)-(4-((1-(3-(difluoromethyl)-2-fluorophenyl)ethyl)amino)-6-methoxy-2-methylquinazoline-7-yl)(morpholino)methanone]"
3,> 100 nM,"COc1cc2c(N[C@H](C)c3cccc(C(F)(F)F)c3)nc(C)nc2cc1C(=O)N1CCOCC1 [Example 15, (R)-(6-methoxy-2-methyl-4-((1-(3-(trifluoromethyl)phenyl)ethyl)amino)quinazolin-7-yl)(morpholino)methanone]"
4,50 to 100 nM,"COc1cc2c(N[C@H](C)c3cc(N)cc(C(F)(F)F)c3C)nc(C)nc2cc1C(=O)N1CCOCC1 [Example 16, (R)-(4-((1-(5-amino-2-methyl-3-(trifluoromethyl)phenyl)ethyl)amino)-6-methoxy-2-methylquinazolin-7-yl)(morpholino)methanone]"
5,≤ 50 nM,COc1cc2c(N[C@H](C)c3cc(N)cc(F)c3)nc(C)nc2cc1C(=O)N1CCOCC1 [Example 17]
6,> 100 nM,"COc1cc2c(N[C@H](C)c3cccc(N)c3OC)nc(C)nc2cc1C(=O)N1CCOCC1 [Example 19, (R)-(4-((1-(3-amino-2-methoxyphenyl)ethyl)amino)-6-methoxy-2-methylquinazolin-7-yl)(morpholino)methanone]"
7,50 to 100 nM,"COc1cc2c(N[C@H](C)c3cccc4c3CCC4)nc(C)nc2cc1C(=O)N1CCOCC1 [Example 23, (R)-(4-((1-(2,3-dihydro-1H-inden-4-yl)ethyl)amino)-6-methoxy-2-methylquinazolin-7-yl)(morpholino)methanone]"
8,≤ 50 nM,"COc1cc2c(N[C@H](C)c3cc(N)cc(C(F)(F)F)c3F)nc(C)nc2cc1C(=O)N1CCOCC1 [Example 25, (R)-(4-((1-(5-amino-2-fluoro-3-(trifluoromethyl)phenyl)ethyl)amino)-6-methoxy-2-methylquinazolin-7-yl)(morpholino)methanone]"
9,≤ 50 nM,"COc1cc2c(N[C@H](C)c3cc(N)cc(C(F)F)c3F)nc(C)nc2cc1C(=O)N1CCOCC1 [Example 26, (R)-(4-((1-(5-amino-3-(difluoromethyl)-2-fluorophenyl)ethyl)amino)-6-methoxy 2-methylquinazolin-7-yl)(morpholino)methanone]"

# From patent publication US20240067613A1, “NOVEL QUINAZOLINE DERIVATIVES AS SOS1 INHIBITORS AND USE THEREOF” (HANMI PHARMACEUTICAL CO., LTD., priority 2020, published 2024)
